Source: patent JP2007509054A, “血管健康を促進するシリルフェノール” (Amylin Pharmaceuticals LLC, priority 2003, dated 2005)

Legend:
serum lipids (血清脂質) = assay: Ex vivo copper-induced lipid peroxidation of serum lipids (lag phase), rabbits fed compound for 70 days; assay type: in vivo; details: rabbit, Fig. 1
[1] = Serum antioxidant activity in rats fed AC3056 in the diet; assay type: in vivo, rat; details: rats fed a diet containing AC3056
[2] = Serum concentration in rats fed AC3056 in the diet; assay type: in vivo, rat; details: rats fed a diet containing AC3056
carotid artery (頚動脈) = assay: Mechanical carotid injury model in ApoE-/- mice: quantitative morphometry; assay type: in vivo, mouse; details: ApoE-/- male mice, high-fat diet with 1.25% cholesterol, treated 18 h before and daily for 28 days after injury, Fig. 7
[3] = system: leukocyte recruitment (白血球動員); assay: Mechanical carotid injury model in ApoE-/- mice: CD45-positive cells / leukocyte recruitment; assay type: in vivo, mouse; details: ApoE-/- male mice, treated 18 h before and daily for 28 days after injury, Fig. 8
VCAM-1 (VCAM−1) [4] = assay: IL-4 induced VCAM-1 expression in human coronary artery smooth muscle cells (CASMC); assay type: cell-based; details: IL-4 100 nmol/L, Fig. 2
VCAM-1 (VCAM−1) [5] = assay: Cytokine (TNF-α) induced VCAM-1 expression in human umbilical vein endothelial cells (HUVEC); assay type: cell-based; details: Fig. 2

Structure (SMILES): COc1ccc([Si](C)(C)COc2cc(C(C)(C)C)c(O)c(C(C)(C)C)c2)cc1 [AC3056]
- increase in lag phase versus serum concentration (serum lipids (血清脂質)): 血清濃度に比例する
- antioxidant activity in serum [1]: 血清中の抗酸化活性の増加
- mean serum concentration [2]: 17700 ng/mL
- intima/media ratio (carotid artery (頚動脈)): 内膜/中膜の比が低下する
- mean lumen thickness (carotid artery (頚動脈)): 平均の内腔厚みが増加する
- mean neointimal thickness (carotid artery (頚動脈)): 平均の新血管内膜の厚みが低下する
- leukocyte recruitment to the neointimal space after vascular injury (CD45-positive cells) [3]: 白血球動員を阻害する

Structure (SMILES): CC(C)(Sc1cc(C(C)(C)C)c(O)c(C(C)(C)C)c1)Sc1cc(C(C)(C)C)c(O)c(C(C)(C)C)c1 [プロブコール]
- inhibition of IL-4 induced VCAM-1 expression (VCAM-1 (VCAM−1) [4]): 本発明の化合物より一般的に有効ではない
- inhibition of cytokine-induced (TNF-α) VCAM-1 expression (VCAM-1 (VCAM−1) [5]): 同様の濃度範囲にて有効ではない
